Source: patent US12581252B2, “Substituted pyrrolo[3,4-b]pyridines as PI3K-α inhibitors” (Relay Therapeutics, Inc., priority 2020, dated 2026)

Target: H1047R PIK3CA enzyme (Homo sapiens, UniProt P42336, H1047R)
Experiment: ADP-Glo Biochemical PIK3CA Kinase Assay

Chain of H1047R PIK3CA enzyme (P42336 whole entry H1047R): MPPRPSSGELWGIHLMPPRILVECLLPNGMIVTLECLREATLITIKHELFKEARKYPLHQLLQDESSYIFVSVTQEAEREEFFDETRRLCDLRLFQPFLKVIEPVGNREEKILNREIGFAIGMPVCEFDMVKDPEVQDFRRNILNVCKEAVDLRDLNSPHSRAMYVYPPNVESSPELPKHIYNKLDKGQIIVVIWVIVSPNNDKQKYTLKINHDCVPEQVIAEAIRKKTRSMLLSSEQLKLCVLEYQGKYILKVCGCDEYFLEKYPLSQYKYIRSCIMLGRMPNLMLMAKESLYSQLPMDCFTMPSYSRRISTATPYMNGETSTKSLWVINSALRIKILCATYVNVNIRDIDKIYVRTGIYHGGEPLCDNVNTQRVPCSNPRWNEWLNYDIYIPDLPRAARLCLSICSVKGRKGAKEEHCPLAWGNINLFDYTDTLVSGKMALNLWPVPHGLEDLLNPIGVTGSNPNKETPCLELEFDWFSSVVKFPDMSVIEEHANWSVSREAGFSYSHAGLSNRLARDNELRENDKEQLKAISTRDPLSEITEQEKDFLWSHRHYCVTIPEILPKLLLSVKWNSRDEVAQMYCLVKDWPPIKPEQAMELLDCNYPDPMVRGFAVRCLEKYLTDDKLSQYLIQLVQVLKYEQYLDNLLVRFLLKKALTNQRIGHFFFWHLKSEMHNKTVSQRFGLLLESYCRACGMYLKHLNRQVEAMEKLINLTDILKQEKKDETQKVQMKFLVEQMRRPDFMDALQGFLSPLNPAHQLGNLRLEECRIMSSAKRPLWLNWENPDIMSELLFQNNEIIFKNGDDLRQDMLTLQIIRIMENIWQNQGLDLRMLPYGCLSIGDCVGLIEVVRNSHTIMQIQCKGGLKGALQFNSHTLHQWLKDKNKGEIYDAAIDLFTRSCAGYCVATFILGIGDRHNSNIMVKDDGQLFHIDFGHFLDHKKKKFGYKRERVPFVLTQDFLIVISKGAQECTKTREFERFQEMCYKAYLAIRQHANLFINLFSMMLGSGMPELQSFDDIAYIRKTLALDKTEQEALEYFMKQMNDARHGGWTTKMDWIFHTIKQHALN
Chain of H1047R PIK3CA enzyme (P27986 whole entry partner): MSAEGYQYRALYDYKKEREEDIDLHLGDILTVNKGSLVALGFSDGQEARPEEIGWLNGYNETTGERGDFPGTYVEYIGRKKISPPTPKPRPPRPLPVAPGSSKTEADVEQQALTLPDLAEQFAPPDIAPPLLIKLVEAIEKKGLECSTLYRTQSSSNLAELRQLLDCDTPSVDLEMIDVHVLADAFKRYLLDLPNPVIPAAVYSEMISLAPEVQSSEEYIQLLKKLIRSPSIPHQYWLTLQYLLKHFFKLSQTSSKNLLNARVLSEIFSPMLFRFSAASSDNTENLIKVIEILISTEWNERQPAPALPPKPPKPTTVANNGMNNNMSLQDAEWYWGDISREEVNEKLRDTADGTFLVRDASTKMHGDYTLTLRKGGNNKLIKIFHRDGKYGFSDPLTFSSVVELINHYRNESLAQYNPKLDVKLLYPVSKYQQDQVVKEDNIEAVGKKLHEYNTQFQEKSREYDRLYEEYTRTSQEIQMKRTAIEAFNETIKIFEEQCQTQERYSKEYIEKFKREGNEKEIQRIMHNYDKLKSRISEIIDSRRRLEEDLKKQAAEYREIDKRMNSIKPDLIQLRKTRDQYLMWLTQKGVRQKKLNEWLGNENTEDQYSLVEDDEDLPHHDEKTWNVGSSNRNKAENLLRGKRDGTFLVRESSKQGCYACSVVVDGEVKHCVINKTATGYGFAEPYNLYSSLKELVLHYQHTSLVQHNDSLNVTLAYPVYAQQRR

`CC(C)(O)c1cc(NC(=O)N2C[C@H](O)c3ccccc32)c2c(c1)C(=O)N[C@@H]2c1cc(F)ccc1Cl` (single isomer, unassigned) [Compound I-2121] was tested, and the IC50 was 1 to 10 µM.
`CC(C)(O)c1cc(NC(=O)N2C[C@@H](O)c3ccccc32)c2c(c1)C(=O)N[C@@H]2c1cc(F)ccc1Cl` (single isomer, unassigned) [Compound I-2122] gave an IC50 of 10 to 100 µM.
Compound `CC(C)(O)c1cc(NC(=O)N2C[C@H](O)c3ccccc32)c2c(c1)C(=O)N[C@H]2c1cc(F)ccc1Cl` (single isomer, unassigned) [Compound I-2123] has an IC50 of 0.5 to 1 µM.
With `O=C1N[C@@H](c2cc(F)ccc2Cl)c2c(NC(=O)N3C[C@H](O)c4cc(F)ccc43)cccc21` (single isomer, unassigned) [Compound I-2126] the IC50 was 0.5 to 1 µM.
Compound `O=C1N[C@H](c2cc(F)ccc2Cl)c2c(NC(=O)N3C[C@H](O)c4cc(F)ccc43)cccc21` (single isomer, unassigned) [Compound I-2128] has an IC50 of 10 to 100 µM.
Work on `O=C1N[C@H](c2cc(F)ccc2Cl)c2c(NC(=O)N3C[C@@H](O)c4cc(F)ccc43)cccc21` (single isomer, unassigned) [Compound I-2129] yielded an IC50 of 10 to 100 µM.
Work on `Nc1cc(NC(=O)N2C[C@H](O)c3ccccc32)c2c(c1)C(=O)N[C@@H]2c1cc(F)ccc1Cl` (single isomer, unassigned) [Compound I-2130] yielded an IC50 of 1 to 10 µM.
Compound `Nc1cc(NC(=O)N2C[C@@H](O)c3ccccc32)c2c(c1)C(=O)N[C@@H]2c1cc(F)ccc1Cl` (single isomer, unassigned) [Compound I-2131] has an IC50 of 1 to 10 µM.
`Nc1cc(NC(=O)N2C[C@H](O)c3ccccc32)c2c(c1)C(=O)N[C@H]2c1cc(F)ccc1Cl` (single isomer, unassigned) [Compound I-2132] was tested, and the IC50 was at most 0.1 µM.
In the case of `O=C1N[C@H](c2cc(F)ccc2Cl)c2c(NC(=O)N3C[C@H](O)c4c(F)cccc43)cccc21` (single isomer, unassigned) [Compound I-2143], the IC50 is reported as 0.5 to 1 µM.
`O=C1N[C@@H](c2cc(F)ccc2Cl)c2c(NC(=O)N3C[C@@H](O)c4c(F)cccc43)cccc21` (single isomer, unassigned) [Compound I-2144] showed an IC50 of 1 to 10 µM.
In the case of `O=C1N[C@H](c2cc(F)ccc2Cl)c2c(NC(=O)N3C[C@@H](O)c4c(F)cccc43)cccc21` (single isomer, unassigned) [Compound I-2145], the IC50 is reported as 1 to 10 µM.
Work on `O=C1N[C@H](c2cc(F)ccc2Cl)c2c(NC(=O)[C@H]3C[C@H](O)C[C@@H](C(F)(F)F)C3)cc(Br)cc21` (single isomer, unassigned) [Compound I-2150] yielded an IC50 of 1 to 10 µM.
For `O=C1N[C@@H](c2cc(F)ccc2Cl)c2c(NC(=O)[C@H]3C[C@H](O)C[C@@H](C(F)(F)F)C3)cc(Br)cc21` (single isomer, unassigned) [Compound I-2151], the IC50 was 1 to 10 µM.
`O=C1N[C@@H](c2cc(F)ccc2Cl)c2c(NC(=O)[C@H]3CC(C(F)(F)F)C[C@@H](O)C3)cc(Br)cc21` (single isomer, unassigned) [Compound I-2152] showed an IC50 of 1 to 10 µM.
`O=C1N[C@H](c2cc(F)ccc2Cl)c2c(N[C@H]3CCOc4ccccc43)cc(-c3cnn(C(F)F)c3)nc21` (single isomer, unassigned) [Compound I-2159] was tested, and the IC50 was 1 to 10 µM.
`O=C1N[C@@H](c2cc(F)ccc2Cl)c2c(N[C@H]3CCOc4ccccc43)cc(-c3cnn(C(F)F)c3)nc21` (single isomer, unassigned) [Compound I-2160] gave an IC50 of 10 to 100 µM.
Work on `O=C1N[C@@H](c2cc(F)ccc2Cl)c2c(NC(=O)[C@@H]3C[C@@H](O)C[C@H](C(F)(F)F)C3)cccc21` (single isomer, unassigned) [Compound I-2175] yielded an IC50 of 10 to 100 µM.
`O=C1N[C@H](c2cc(F)ccc2Cl)c2c(NC(=O)[C@@H]3C[C@@H](O)C[C@H](C(F)(F)F)C3)cccc21` (single isomer, unassigned) [Compound I-2176] was tested, and the IC50 was 10 to 100 µM.
Work on `O=C1N[C@@H](c2cc(F)ccc2Cl)c2c(NC(=O)[C@H]3C[C@H](O)C[C@@H](C(F)(F)F)C3)cccc21` (single isomer, unassigned) [Compound I-2177] yielded an IC50 of 1 to 10 µM.
With `O=C1N[C@H](c2cc(F)ccc2Cl)c2c(NC(=O)[C@H]3C[C@H](O)C[C@@H](C(F)(F)F)C3)cccc21` (single isomer, unassigned) [Compound I-2178] the IC50 was 10 to 100 µM.
With `O=C1N[C@@H](c2cc(F)ccc2Cl)c2c(NC(=O)[C@H]3C[C@H](O)C[C@@H](C(F)(F)F)C3)cc(Br)cc21` (single isomer, unassigned) [Compound I-2179] the IC50 was 0.5 to 1 µM.
`C[C@]1(O)CN(C(=O)Nc2cccc3c2[C@@H](c2cc(F)ccc2Cl)NC3=O)c2ccccc21` (single isomer, unassigned) [Compound I-2203] showed an IC50 of 1 to 10 µM.
With `C[C@@]1(O)CN(C(=O)Nc2cccc3c2[C@@H](c2cc(F)ccc2Cl)NC3=O)c2ccccc21` (single isomer, unassigned) [Compound I-2204] the IC50 was 1 to 10 µM.
With `C[C@@]1(O)CN(C(=O)Nc2cccc3c2[C@H](c2cc(F)ccc2Cl)NC3=O)c2ccccc21` (single isomer, unassigned) [Compound I-2206] the IC50 was 10 to 100 µM.
Compound `O=C1N[C@H](c2cc(F)ccc2Cl)c2c(NC(=O)N3C[C@H](O)c4cccc(F)c43)cccc21` (single isomer, unassigned) [Compound I-2207] has an IC50 of 1 to 10 µM.
In the case of `O=C1N[C@H](c2cc(F)ccc2Cl)c2c(NC(=O)N3C[C@@H](O)c4cccc(F)c43)cccc21` (single isomer, unassigned) [Compound I-2208], the IC50 is reported as 10 to 100 µM.
For `O=C1N[C@@H](c2cc(F)ccc2Cl)c2c(NC(=O)N3C[C@H](O)c4cccc(F)c43)cccc21` (single isomer, unassigned) [Compound I-2209], the IC50 was 10 to 100 µM.
In the case of `O=C1N[C@@H](c2cc(F)ccc2Cl)c2c(NC(=O)N3C[C@@H](O)c4cccc(F)c43)cccc21` (single isomer, unassigned) [Compound I-2210], the IC50 is reported as 10 to 100 µM.
In the case of `O=C1N[C@H](c2cc(F)ccc2Cl)c2c(NC(=O)[C@H]3CCC[C@H](OC(F)(F)F)C3)cccc21` (single isomer, unassigned) [Compound I-2211], the IC50 is reported as 10 to 100 µM.
`O=C1N[C@@H](c2cc(F)ccc2Cl)c2c(NC(=O)[C@H]3CCC[C@H](OC(F)(F)F)C3)cccc21` (single isomer, unassigned) [Compound I-2212] showed an IC50 of 10 to 100 µM.
Work on `O=C1N[C@H](c2cc(F)ccc2Cl)c2c(NC(=O)[C@@H]3CCC[C@H](OC(F)(F)F)C3)cccc21` (single isomer, unassigned) [Compound I-2213] yielded an IC50 of 10 to 100 µM.
`O=C1N[C@@H](c2cc(F)ccc2Cl)c2c(NC(=O)[C@@H]3CCC[C@H](OC(F)(F)F)C3)cccc21` (single isomer, unassigned) [Compound I-2214] showed an IC50 of 10 to 100 µM.
`O=C1N[C@H](c2cc(F)ccc2Cl)c2c(NC(=O)[C@@H]3CCC[C@@H](OC(F)(F)F)C3)cccc21` (single isomer, unassigned) [Compound I-2215] gave an IC50 of 10 to 100 µM.
With `O=C1N[C@@H](c2cc(F)ccc2Cl)c2c(NC(=O)[C@@H]3CCC[C@@H](OC(F)(F)F)C3)cccc21` (single isomer, unassigned) [Compound I-2216] the IC50 was 10 to 100 µM.
Compound `O=C1N[C@H](c2cc(F)ccc2Cl)c2c(NC(=O)[C@H]3CCC[C@@H](OC(F)(F)F)C3)cccc21` (single isomer, unassigned) [Compound I-2217] has an IC50 of 10 to 100 µM.
`O=C1N[C@@H](c2cc(F)ccc2Cl)c2c(NC(=O)[C@H]3CCC[C@@H](OC(F)(F)F)C3)cccc21` (single isomer, unassigned) [Compound I-2218] showed an IC50 of 10 to 100 µM.
Work on `O=C(Nc1cccc2c1[C@@H](C1CC1)NC2=O)c1cc(F)cc(C(F)(F)F)c1` (single isomer, unassigned) [Compound I-2220] yielded an IC50 of 10 to 100 µM.
`O=C(Nc1cccc2c1[C@H](C1CC1)NC2=O)c1cc(F)cc(C(F)(F)F)c1` (single isomer, unassigned) [Compound I-2221] was tested, and the IC50 was 10 to 100 µM.
With `O=C(Nc1cccc2c1[C@@H](C1CCC[C@H](O)C1)NC2=O)c1cc(F)cc(C(F)(F)F)c1` (single isomer, unassigned) [Compound I-2225] the IC50 was 10 to 100 µM.
In the case of `C[C@H](O)c1cc(-c2ccc3ncnn3c2)cc2c1[C@@H](c1cc(F)ccc1Cl)NC2=O` (single isomer, unassigned) [Compound I-2228], the IC50 is reported as 10 to 100 µM.
Work on `C[C@H](O)c1cc(-c2ccc3ncnn3c2)cc2c1[C@H](c1cc(F)ccc1Cl)NC2=O` (single isomer, unassigned) [Compound I-2229] yielded an IC50 of 10 to 100 µM.
In the case of `C[C@@H](O)c1cc(-c2ccc3ncnn3c2)cc2c1[C@@H](c1cc(F)ccc1Cl)NC2=O` (single isomer, unassigned) [Compound I-2230], the IC50 is reported as 10 to 100 µM.
With `C[C@@H](O)c1cc(-c2ccc3ncnn3c2)cc2c1[C@H](c1cc(F)ccc1Cl)NC2=O` (single isomer, unassigned) [Compound I-2231] the IC50 was 10 to 100 µM.
For `O=C(Nc1cc(-c2cn3ncnc3cn2)cc2c1[C@@H](c1cc(F)ccc1C(F)F)NC2=O)c1cc(F)cc(C(F)(F)F)c1` (single isomer, unassigned) [Compound I-2233], the IC50 was 1 to 10 µM.
Compound `O=C1N[C@H](c2cc(F)ccc2Cl)c2c(NC(=O)N3C[C@H](O)C[C@@H](C(F)(F)F)C3)cccc21` (single isomer, unassigned) [Compound I-2236] has an IC50 of 10 to 100 µM.
With `O=C1N[C@@H](c2cc(F)ccc2Cl)c2c(NC(=O)N3C[C@H](O)C[C@@H](C(F)(F)F)C3)cccc21` (single isomer, unassigned) [Compound I-2237] the IC50 was 1 to 10 µM.
Work on `CN1CCN(C(=O)Nc2cc(Br)cc3c2[C@H](c2cc(F)ccc2Cl)NC3=O)CC1(C)C` (single isomer, unassigned) [Compound I-2240] yielded an IC50 of 10 to 100 µM.
With `CN1CCN(C(=O)Nc2cc(Br)cc3c2[C@@H](c2cc(F)ccc2Cl)NC3=O)CC1(C)C` (single isomer, unassigned) [Compound I-2241] the IC50 was 10 to 100 µM.
`O=C1N[C@@H](c2cc(F)ccc2Cl)c2c(NC(=O)N3CCOCC(F)(F)C3)cc(Br)cc21` (single isomer, unassigned) [Compound I-2242] was tested, and the IC50 was 10 to 100 µM.
With `O=C1N[C@H](c2cc(F)ccc2Cl)c2c(NC(=O)N3CCOCC(F)(F)C3)cc(Br)cc21` (single isomer, unassigned) [Compound I-2243] the IC50 was 10 to 100 µM.
`CN1CCN(C(=O)Nc2cc(Br)cc3c2[C@H](c2cc(F)ccc2Cl)NC3=O)CC1` (single isomer, unassigned) [Compound I-2244] gave an IC50 of 10 to 100 µM.
